We go through 29 compounds from patent US20060247227A1, “Substituted piperidines as histamine h3 receptor ligands” (priority 2003, published 2006).

Molecules are shown by their SMILES. Structures can show the parent of a compound that is named as a salt. Bounds are passed on as bounds.

For this assay, the target named is T1, histamine H3 receptor (Homo sapiens, UniProt Q9Y5N1).
T1 construct: expressed in transfected cells; host or cells: CHO K1 cells carrying pSwitch, transfected with pGeneH3 and induced with mifepristone; clone 3H3; membranes
T1 sequence (Q9Y5N1 whole entry): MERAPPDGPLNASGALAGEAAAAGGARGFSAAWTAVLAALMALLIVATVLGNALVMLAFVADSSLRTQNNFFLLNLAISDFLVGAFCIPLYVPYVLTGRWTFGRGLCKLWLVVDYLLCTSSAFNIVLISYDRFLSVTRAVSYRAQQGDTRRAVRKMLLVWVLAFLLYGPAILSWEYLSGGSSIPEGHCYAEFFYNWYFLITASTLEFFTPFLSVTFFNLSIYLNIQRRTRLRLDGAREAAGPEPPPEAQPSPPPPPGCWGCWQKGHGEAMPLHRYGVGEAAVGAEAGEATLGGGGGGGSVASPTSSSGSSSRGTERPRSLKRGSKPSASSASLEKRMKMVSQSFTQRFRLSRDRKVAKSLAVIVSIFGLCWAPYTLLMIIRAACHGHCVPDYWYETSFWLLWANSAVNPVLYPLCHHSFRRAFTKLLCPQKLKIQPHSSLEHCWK
Nature of the assay: Histamine H3 functional antagonist assay ([35S]GTPγS, SPA, membranes of CHO K1 cells expressing the receptor). It counts as biochemical. The following applies: histamine-stimulated GTPγS binding, membranes with human H3. From the text: A membrane preparation containing histamine H3 receptors may be prepared in accordance with the following procedures:
(i) Generation of Histamine H3 Cell Line
DNA encoding the human histamine H3 gene (Huvar, A. et al. (1999) Mol. Pharmacol. 55(6), 1101-1107) was cloned into a holding vector, pCDNA3.1 TOPO (InVitrogen) and its cDNA was isolated from this vector by restriction digestion of plasmid DNA with the enzymes BamH1 and Not-1 and ligated into the inducible expression vector pGene (InVitrogen) digested with the same enzymes. The GeneSwitch™ system (a system where in transgene expression is switched off in the absence of an inducer and switched on in the presence of an inducer) was performed as described in U.S. Pat. Nos. 5,364,791; 5,874,534; and 5,935,934. Ligated DNA was transformed into competent DH5α E. coli host bacterial cells and plated onto Luria Broth (LB) agar containing Zeocin™ (an antibiotic which allows the selection of cells expressing the sh ble gene which is present on pGene and pSwitch) at 50 μg ml^−1. Colonies containing the re-ligated plasmid were identified by restriction analysis. DNA for transfection into mammalian cells was prepared from 250 ml cultures of the host bacterium containing the pGeneH3 plasmid and isolated using a DNA preparation kit (Qiagen Midi-Prep) as per manufacturers guidelines (Qiagen).
CHO K1 cells previously transfected with the pSwitch regulatory plasmid (InVitrogen) were seeded at 2×10e6cells per T75 flask in Complete Medium, containing Hams F12 (GIBCOBRL, Life Technologies) medium supplemented with 10% v/v dialysed foetal bovine serum, L-glutamine, and hygromycin ([…]), 24 hours prior to use. Plasmid DNA was transfected into the cells using Lipofectamine plus according to the manufacturers guidelines (InVitrogen). 48 hours post transfection cells were placed into complete medium supplemented with […] Zeocin™.
10-14 days post selection 10 nM Mifepristone (InVitrogen), was added to the culture medium to induce the expression of the receptor. 18 hours post induction cells were detached from the flask using ethylenediamine tetra-acetic acid (EDTA; 1:5000; InVitrogen), following several washes with phosphate buffered saline pH 7.4and resuspended in Sorting Medium containing Minimum Essential Medium (MEM), without phenol red, and supplemented with Earles salts and 3% Foetal Clone II (Hyclone). Approximately 1×10e7 cells were examined for receptor expression by staining with a rabbit polyclonal antibody, 4a, raised against the N-terminal domain of the histamine H3 receptor, incubated on ice for 60 minutes, followed by two washes in sorting medium. Receptor bound antibody was detected by incubation of the cells for 60 minutes on ice with a goat anti rabbit antibody, conjugated with Alexa 488 fluorescence marker (Molecular Probes). Following two further washes with Sorting Medium, cells were filtered through a 50 μm Filcon™ (BD Biosciences) and then analysed on a FACS Vantage SE Flow Cytometer fitted with an Automatic Cell Deposition Unit. Control cells were non-induced cells treated in a similar manner. Positively stained cells were sorted as single cells into 96-well plates, containing Complete Medium containing 500 μg ml^−1 Zeocin™ and allowed to expand before reanalysis for receptor expression via antibody and ligand binding studies. One clone, 3H3, was selected for membrane preparation.
(ii) Membrane Preparation from Cultured Cells
All steps of the protocol are carried out at 4° C. and with pre-cooled reagents. The cell pellet is resuspended in 10 volumes of buffer A2 containing 50 mM N-2-hydroxyethylpiperazine-N′-2-ethanesulfonic acid (HEPES) (pH 7.40) supplemented with […] leupeptin (acetyl-leucyl-leucyl-arginal; Sigma L2884), 25 μg/ml bacitracin (Sigma B0125), 1 mM ethylenediamine tetra-acetic acid (EDTA), 1 mM phenylmethylsulfonyl fluoride (PMSF) and 2×10e-6M pepstain A (Sigma). […]
In general terms: GTPγS resists hydrolysis and so accumulates on activated G proteins.
The Ki is a measure of affinity in units of concentration, obtained from inhibition or displacement. `CC(C)N1CCC(OC2CCN(c3ccc(C(F)(F)F)nc3)CC2)CC1` [Example E81, 5-{4-[(1-Methylethyl-4-piperidinyl)oxy]-1-piperidinyl}-2-(trifluoromethyl)pyridine hydrochloride]: the Ki was no more than 1 nM.

In turn, `FC(F)(F)c1ccc(N2CCC(OC3CCN(C4CCC4)CC3)CC2)nn1` [Example E82, 3-{4-[(1-Cyclobutyl-4-piperidinyl)oxy]-1-piperidinyl}-6-(trifluoromethyl)pyridazine hydrochloride] had a Ki of less than 0.316 nM.

With `CC(C)N1CCC(OC2CCN(c3ccc(C(F)(F)F)nn3)CC2)CC1` [Example E83, 3-(4-{[1-(1-Methylethyl)-4-piperidinyl]oxy}-1-piperidinyl)-6-(trifluoromethyl)pyridazine], the Ki is less than 10 nM.

In the case of `FC(F)(F)c1cnc(N2CCC(OC3CCN(C4CCC4)CC3)CC2)cn1` [Example E84, 2-{4-[(1-Cyclobutyl-4-piperidinyl)oxy]-1-piperidinyl}-5-(trifluoromethyl)pyrazine hydrochloride], the Ki was no more than 1 nM.

As for `CC(C)N1CCC(OC2CCN(c3cnc(C(F)(F)F)cn3)CC2)CC1` [Example E85, 2-(4-[1-(1-Methylethyl)-4-piperidinyl]oxy}-1-piperidinyl)-5-(trifluoromethyl)pyrazine hydrochloride], the Ki is no more than 1 nM.

`FC(F)(F)c1ccc(N2CCC(OC3CCN(C4CCC4)CC3)CC2)nc1` [Example E86, 2-{4-[(1-Cyclobutyl-4-piperidinyl)oxy]-1-piperidinyl}-5-(trifluoromethyl)pyridine hydrochloride] showed a Ki of no more than 1 nM.

`CC(C)N1CCC(OC2CCN(c3ccc(C(F)(F)F)cn3)CC2)CC1` [Example E87, 2-(4-{[1-(1-Methylethyl)-4-piperidinyl]oxy}-1-piperidinyl)-5-(trifluoromethyl)pyridine hydrochloride]: the Ki was less than 10 nM.

In turn, `FC(F)(F)c1ncc(N2CCC(OC3CCN(C4CCC4)CC3)CC2)cn1` [Example E88, 5-{4-[(1-Cyclobutyl-4-piperidinyl)oxy]-1-piperidinyl}-2-(trifluoromethyl)pyrimidine] gave a Ki of less than 0.316 nM.

Turning to `CC(C)N1CCC(OC2CCN(c3cnc(C(F)(F)F)nc3)CC2)CC1` [Example E89, 5-(4-{[1-(1-Methylethyl)-4-piperidinyl]oxy}-1 piperidinyl)-2-(trifluoromethyl) pyrimidine], the inhibition constant (Ki) is no more than 1 nM.

Compound `CCC(=O)c1ccc(N2CCC(OC3CCN(C4CCC4)CC3)CC2)cc1` [Example E90, 1-(4-{4-[(1-Cyclobutyl-4-piperidinyl)oxy]-1-piperidinyl}phenyl)-1-propanone] had a Ki of no more than 1 nM.

The compound `O=C(c1ccc(N2CCC(OC3CCN(C4CCC4)CC3)CC2)cc1)C1CC1` [Example E91] gave a Ki of no more than 1 nM.

Take `CC(=O)c1ccc(N2CCC(OC3CCN(C4CCC4)CC3)CC2)nc1` [Example E93, 1-(6-{4-[(1-Cyclobutyl-4-piperidinyl)oxy]-1-piperidinyl}-3-pyridinyl)ethanone]: the Ki was no more than 1 nM.

Compound `Cc1ccc2cc(N3CCC(OC4CCN(C5CCC5)CC4)CC3)ccc2n1` [Example E94, 6-{4-[(1-Cyclobutyl-4-piperidinyl)oxy]-1-piperidinyl}-2-methylquinoline hydrochloride] had an inhibitory constant (Ki) of no more than 1 nM.

`CC(C)N1CCC(OC2CCN(c3ccc(C(=O)OC(C)(C)C)nc3)CC2)CC1` [Example E95, 1,1-Dimethylethyl 5-(4-{[1-(1-methylethyl)-4-piperidinyl]oxy}-1-piperidinyl)-2-pyridinecarboxylate] showed a Ki of no more than 1 nM.

Turning to `CC(C)(C)OC(=O)c1ccc(N2CCC(OC3CCN(C4CCC4)CC3)CC2)cn1` [Example E96, 1,1-Dimethylethyl 5-{4-[(1-cyclobutyl-4-piperidinyl)oxy]-1-piperidinyl}-2-pyridinecarboxylate], the inhibition constant (Ki) was no more than 1 nM.

With `CC(=O)c1ccc(N2CCC(OC3CCN(C(C)C)CC3)CC2)cc1` [Example E97, 1-[4-(4-{[1-(Methylethyl)-4-piperidinyl]oxy}-1-piperidinyl)phenyl]ethanone], the Ki was no more than 1 nM.

The compound `CC(=O)Nc1ccc(N2CCC(OC3CCN(C4CCC4)CC3)CC2)cc1F` [Example E98, N-(4-{4-[(1-Cyclobutyl-4-piperidinyl)oxy]-1-piperidinyl}-2-fluorophenyl)acetamide hydrochloride] had a Ki of no more than 1 nM.

Turning to `CC[C@H](C)N1CCC(OC2CCN(c3ccc(C(C)=O)cc3)CC2)CC1` [Example E101], the Ki was no more than 1 nM.

`CC[C@@H](C)N1CCC(OC2CCN(c3ccc(C(C)=O)cc3)CC2)CC1` [Example E102] showed a Ki of no more than 1 nM.

As for `CC(=O)c1ccc(N2CCC(OC3CCN(CC4CC4)CC3)CC2)cc1` [Example E103, 1-[4-(4-{[1-(Cyclopropylmethyl)-4-piperidinyl]oxy}-1-piperidinyl)phenyl]ethanone], the Ki is less than 10 nM.

`O=C(NC1CCC1)c1ccc(N2CCC(OC3CCN(C4CCC4)CC3)CC2)cn1` [Example E104, N-Cyclobutyl-5-{4-[(1-cyclobutyl-4-piperidinyl)oxy]-1-piperidinyl}-2-pyridinecarboxamide] gave a Ki of no more than 1 nM.

Compound `CC(C)N1CCC(OC2CCN(c3ccc(C(=O)NC4CCC4)nc3)CC2)CC1` [Example E105, N-Cyclobutyl-5-(4-{[1-(1-methylethyl)-4-piperidinyl]oxy}-1-piperidinyl)-2-pyridinecarboxamide] gave a Ki of no more than 1 nM.

With `CC(C)N1CCC(OC2CCN(c3ccc(C(=O)NCCCCl)cc3)CC2)CC1` [Example E106, N-(3-Chloropropyl)-4-(4-{[1-(1-methylethyl)-4-piperidinyl]oxy}-1-piperidinyl)benzamide hydrochloride], the Ki was no more than 1 nM.

In turn, `O=C(NCCCCl)c1ccc(N2CCC(OC3CCN(C4CCC4)CC3)CC2)cn1` [Example E107, N-(3-Chloropropyl)-5-{4-[(1-cyclobutyl-4-piperidinyl)oxy]-1-piperidinyl}-2-pyridinecarboxamide hydrochloride] gave a Ki of no more than 1 nM.

In turn, `CC(C)N1CCC(OC2CCN(c3ccc(C(=O)NCCCCl)nc3)CC2)CC1` [Example E108, N (3-Chloropropyl)-5-(4-{[1-(1-methylethyl)-4-piperidinyl]oxy}-1-piperidinyl)-2-pyridinecarboxamide hydrochloride] gave a Ki of no more than 1 nM.

`CC(=O)c1ccc(N2CCC(OC3CCN(C4CCC4)CC3)CC2)c(F)c1` [Example E109, 1-(4-{4-[(1-Cyclobutyl-4-piperidinyl)oxy]-1-piperidinyl}-3-fluorophenyl)ethanone] showed a Ki of no more than 1 nM.

On to `Cc1noc(-c2ccc(N3CCC(OC4CCN(C5CCC5)CC4)CC3)cc2F)n1` [Example E110, 1-Cyclobutyl-4-({1-[3-fluoro-4-(3-methyl-1,2,4-oxadiazol-5-yl)phenyl]-4-piperidinyl}oxy)piperidine], for which the Ki is no more than 1 nM.

As for `CC(=O)c1ccc(N2CCC(OC3CCN(C4CCC4)CC3)CC2)cn1` [Example E111, 1-(5-{4-[(1-Cyclobutyl-4-piperidinyl)oxy]-1-piperidinyl}-2-pyridinyl)ethanone], the Ki was no more than 1 nM.

Compound `Cc1noc(-c2ccc(N3CCC(OC4CCN(C(C)C)CC4)CC3)c(F)c2)n1` [Example E112, 1-[2-Fluoro-4-(3-methyl-1,2,4-oxadiazol-5-yl)phenyl]-4-{[1-(1-methylethyl)-4-piperidinyl]oxy}piperidine hydrochloride] showed a Ki of no more than 1 nM.
